Source: US11427539B2, “Beta-hydroxy heterocyclic amines and their use in the treatment of hyperglycaemia” (ATROGI AB, priority 2017, dated 2022)
Structures can show the parent of a compound that is named as a salt. Where two headings read alike, the source gives them in different places.

What was measured:
[1] = system: Differentiated L6-myotubes; assay: Glucose uptake in differentiated L6-myotubes (3H-2-deoxy-glucose); format: cell-based; conditions: read-out: Biological example 1: glucose uptake, activity compared to that of isoproterenol
[2] = system: Intracellular cAMP levels in differentiated cells (L6-myotubes); assay: Measurement of intracellular cAMP levels (alpha screen cAMP kit); format: cell-based; conditions: 0.25 h, read-out: Biological example 2: intracellular cAMP levels, activity compared to that of isoproterenol
Experimental: L6-myoblasts were grown in Dulbecco's Modified Eagle's Medium (DMEM) containing 4.5 g/l glucose supplemented with 10% fetal bovine serum, 2 mM L-Glutamine, 50 U/ml penicillin, 50 μg/ml streptomycin and 10 mM HEPES. Cells were plated at 1×10^5 cells per ml in 24-well plates. After reaching 90% confluence the cells were grown in medium containing 2% FBS for 7 days where upon cells differentiated into myotubes. Differentiated cells were serum-starved over night and stimulated with agonist, final concentration 1×10-^5, for 15 min in stimulation buffer (HBSS supplemented with 1% BSA, 5 mM HEPES and 1 mM IBMX, pH 7.4) The medium was then aspirated and to end the reaction 100 μL of 95% EtOH was added to each well of a 24-well plate and cells were kept in −20° C. over night. The EtOH was let to evaporate and 500 μL of lysis buffer (1% BSA, 5 mM HEPES and 0.3% Tween-20, pH 7.4) was added to each well before put in −80° C. for 30 min and then kept in −20° C. Intracellular cAMP levels were detected using an alpha screen cAMP kit (6760635D from Perkin Elmer). The activity for each compound is compared to that of isoproterenol.

[3] = agonist final concentration 1×10^−5, L6-myotubes, 3H-2-deoxy-glucose uptake, relative to isoproterenol
[4] = agonist final concentration 1×10-^5, 15 min, differentiated cells, relative to isoproterenol

## CCC[C@H]1CCC[C@H]([C@H](O)c2cccc(Cl)c2)N1 [Example 20, (R)-(3-Chlorophenyl)((2R,6S)-6-propylpiperidin-2-yl)methanol hydrochloride]
[1]; [3]
  Emax: 25 to 50%
[2]; [4]
  Emax: < 25%

## CCC[C@@H]1CC[C@H]([C@@H](O)c2cccc(O)c2)N1 [Example 40, 3-((S)-Hydroxy((2R,5R)-5-propylpyrrolidin-2-yl)methyl)phenol]
[1]; [3]
  Emax: 25 to 50%
[2]; [4]
  Emax: < 25%

## CCC[C@H]1CCC[C@@H]([C@H](O)c2cccc(Cl)c2)N1 [Example 36, (R)-(3-Chlorophenyl)((2S,6S)-6-propylpiperidin-2-yl)methanol hydrochloride]
[1]; [3]
  Emax: 25 to 50%
[2]; [4]
  Emax: < 25%

## CCC[C@H]1CC[C@H](C(O)c2cccc(O)c2)N1 (stereo in doubt) [Example 46, 3-((R)-hydroxy((2R,5S)-5-propylpyrrolidin-2-yl)methyl)phenol]
[1]; [3]
  Emax: 50 to 75%
[2]; [4]
  Emax: < 25%

## CCC[C@@H]1CCC[C@H]([C@H](O)c2cccc(O)c2)N1 [Example 6, 3-((R)-Hydroxy((2R,6R)-6-propylpiperidin-2-yl)methyl)phenol]
[1]; [3]
  Emax: 50 to 75%
[2]; [4]
  Emax: < 25%

## CCC[C@@H]1CC[C@H]([C@H](O)c2cccc(F)c2)N1 [Example 7, (R)-(3-Fluorophenyl)((2R,5R)-5-propylpyrrolidin-2-yl)methanol Acetate]
[1]; [3]
  Emax: > 75%
[2]; [4]
  Emax: < 25%

## CCC[C@H]1CCC[C@H]([C@@H](O)c2cccc(Cl)c2)N1 [Example 21, (S)-(3-Chlorophenyl)((2R,6S)-6-propylpiperidin-2-yl)methanol hydrochloride]
[1]; [3]
  Emax: 25 to 50%
[2]; [4]
  Emax: < 25%

## CCC[C@@H]1CCC[C@H]([C@H](O)c2cccc(F)c2)N1 [Example 1, (R)-(3-Fluorophenyl)((2R,6R)-6-propylpiperidin-2-yl)methanol]
[1]; [3]
  Emax: 25 to 50%
[2]; [4]
  Emax: < 25%

## CCC[C@H]1CCC[C@H]([C@H](O)c2ccc(F)c(F)c2)N1 [Example 4, (R)-(3,4-Difluorophenyl)((2R,6S)-6-propylpiperidin-2-yl)methanol]
[1]; [3]
  Emax: 50 to 75%
[2]; [4]
  Emax: < 25%

## CCC[C@@H]1CC[C@H]([C@H](O)c2cccc(Cl)c2)N1 [Example 47, (R)-(3-Chlorophenyl)((2R,5R)-5-propylpyrrolidin-2-yl)methanol Maleate]
[1]; [3]
  Emax: 50 to 75%
[2]; [4]
  Emax: < 25%

## CCC[C@H]1CCC[C@H]([C@H](O)c2ccc(F)cc2)N1 [Example 25, (R)-(4-Fluorophenyl)((2R,6S)-6-propylpipehdin-2-yl)methanol]
[1]; [3]
  Emax: 50 to 75%
[2]; [4]
  Emax: < 25%

## CCC[C@H]1CCC[C@H]([C@@H](O)c2cccc(F)c2)N1 [Example 18, (S)-(3-Fluorophenyl)((2R,6S)-6-propylpiperidin-2-yl)methanol]
[1]; [3]
  Emax: 50 to 75%
[2]; [4]
  Emax: < 25%

## CCC[C@@H]1CCC[C@H]([C@@H](O)c2ccccc2F)N1 [Example 17, (S)-(2-Fluorophenyl)((2R,6R)-6-propylpiperidin-2-yl)methanol hydrochloride]
[1]; [3]
  Emax: 25 to 50%
[2]; [4]
  Emax: < 25%

## CCC[C@H]1CCC[C@H]([C@@H](O)c2ccc(F)c(F)c2)N1 [Example 28, (S)-(3,4-Difluorophenyl)((2R,6S)-6-propylpiperidin-2-yl)methanol]
[1]; [3]
  Emax: 25 to 50%
[2]; [4]
  Emax: < 25%

## CCC[C@H]1CC[C@H]([C@H](O)c2cccc(F)c2)N1 [Example 45, (R)-(3-Fluorophenyl)((2R,5S)-5-propylpyrrolidin-2-yl)methanol]
[1]; [3]
  Emax: 50 to 75%
[2]; [4]
  Emax: < 25%

## CCC[C@@H]1CCC[C@@H]([C@H](O)c2cccc(Cl)c2)N1 [Example 30, (R)-(3-Chlorophenyl)((2S,6R)-6-propylpiperidin-2-yl)methanol hydrochloride]
[1]; [3]
  Emax: > 75%
[2]; [4]
  Emax: < 25%

## CCC[C@H]1CCC[C@@H]([C@H](O)c2cccc(F)c2)N1 [Example 34, (R)-(3-Fluorophenyl)((2S,6S)-6-propylpiperidin-2-yl)methanol hydrochloride]
[1]; [3]
  Emax: 50 to 75%
[2]; [4]
  Emax: < 25%

## CCC[C@H]1CC[C@@H]([C@H](O)c2cccc(F)c2)N1 [Example 41, (R)-(3-fluorophenyl)((2S,5S)-5-propylpyrrolidin-2-yl)methanol Hydrochloride]
[1]; [3]
  Emax: 50 to 75%
[2]; [4]
  Emax: < 25%

## C[C@@H]1CC[C@H]([C@H](O)c2ccccc2)N1 (racemic) [Example 12, Racemic mixture of (R)-((2R,5R)-5-Methylpyrrolidin-2-yl)(phenyl)methanol and (S)-((2S,5S)-5-Methylpyrrolidin-2-yl)(phenyl)methanol]
[1]
  Emax: 50 to 75%
[2]
  Emax: < 25%

## CCC[C@H]1CCC[C@H]([C@H](O)c2cc(F)cc(F)c2)N1 [Example 3, (R)-(3,5-Difluorophenyl)((2R,6S)-6-propylpiperidin-2-yl)methanol]
[1]; [3]
  Emax: > 75%
[2]; [4]
  Emax: < 25%

## CCC[C@@H]1CCC[C@@H]([C@H](O)c2cccc(F)c2)N1 [Example 29, (R)-(3-Fluorophenyl)((2S,6R)-6-propylpiperidin-2-yl)methanol hydrochloride]
[1]; [3]
  Emax: 25 to 50%
[2]; [4]
  Emax: < 25%

## CCC[C@@H]1CC[C@@H]([C@@H](O)c2cccc(F)c2)N1 [Example 44, (S)-(3-Fluorophenyl)((2S,5R)-5-propylpyrrolidin-2-yl)methanol Hydrochloride]
[1]; [3]
  Emax: 50 to 75%
[2]; [4]
  Emax: < 25%

## CCC[C@H]1CC[C@@H]([C@@H](O)c2cccc(F)c2)N1 [Example 42, (S)-(3-Fluorophenyl)((2S,5S)-5-propylpyrrolidin-2-yl)methanol Hydrochloride]
[1]; [3]
  Emax: 50 to 75%
[2]; [4]
  Emax: < 25%

## CCC[C@@H]1CCC[C@H]([C@H](O)c2ccc(F)cc2)N1 [Example 15, (R)-(4-Fluorophenyl)((2R,6R)-6-propylpiperidin-2-yl)methanol]
[1]; [3]
  Emax: 50 to 75%
[2]; [4]
  Emax: < 25%

## CCC[C@@H]1CCC[C@@H]([C@H](O)c2cccc(O)c2)N1 [Example 32, 3-((R)-hydroxy((2S,6R)-6-propylpiperidin-2-yl)methyl)phenol Hydrochloride]
[1]; [3]
  Emax: > 75%
[2]; [4]
  Emax: < 25%

## C[C@H]1CC[C@@H]([C@H](O)c2ccccc2)N1 (racemic) [Example 11, Racemic mixture of (R)-((2S,5S)-5-Methylpyrrolidin-2-yl)(phenyl)methanol and (S)-((2R,5R)-5-Methylpyrrolidin-2-yl)(phenyl)methanol]
[1]
  Emax: 25 to 50%
[2]
  Emax: < 25%

## CCC[C@H]1CCC[C@@H]([C@H](O)c2cccc(O)c2)N1 [Example 37, (R)-(3-Hydroxyphenyl)((2S, 6S)-6-propylpiperidin-2-yl)methanol]
[1]; [3]
  Emax: 50 to 75%
[2]; [4]
  Emax: < 25%

## CCC[C@@H]1CCC[C@H]([C@H](O)c2ccccc2F)N1 [Example 16, (R)-(2-Fluorophenyl)((2R,6R)-6-propylpiperidin-2-yl)methanol]
[1]; [3]
  Emax: 50 to 75%
[2]; [4]
  Emax: < 25%
